Patent US8916565B2, “Pyrrolopyrazine-spirocyclic piperidine amides as modulators of ion channels” (priority 2011, dated 2014)

Target: human NaV subtype, like NaV 1.7 (Homo sapiens, UniProt Q15858)
Assay: E-VIPR optical membrane potential assay with electrical stimulation
Type: cell-based
Conditions: active against one or more sodium channels; Table 3 does not name the assay or NaV subtype; read-out: Binned Activity Data (IC50)

Sequence of human NaV subtype, like NaV 1.7 (Q15858 whole entry): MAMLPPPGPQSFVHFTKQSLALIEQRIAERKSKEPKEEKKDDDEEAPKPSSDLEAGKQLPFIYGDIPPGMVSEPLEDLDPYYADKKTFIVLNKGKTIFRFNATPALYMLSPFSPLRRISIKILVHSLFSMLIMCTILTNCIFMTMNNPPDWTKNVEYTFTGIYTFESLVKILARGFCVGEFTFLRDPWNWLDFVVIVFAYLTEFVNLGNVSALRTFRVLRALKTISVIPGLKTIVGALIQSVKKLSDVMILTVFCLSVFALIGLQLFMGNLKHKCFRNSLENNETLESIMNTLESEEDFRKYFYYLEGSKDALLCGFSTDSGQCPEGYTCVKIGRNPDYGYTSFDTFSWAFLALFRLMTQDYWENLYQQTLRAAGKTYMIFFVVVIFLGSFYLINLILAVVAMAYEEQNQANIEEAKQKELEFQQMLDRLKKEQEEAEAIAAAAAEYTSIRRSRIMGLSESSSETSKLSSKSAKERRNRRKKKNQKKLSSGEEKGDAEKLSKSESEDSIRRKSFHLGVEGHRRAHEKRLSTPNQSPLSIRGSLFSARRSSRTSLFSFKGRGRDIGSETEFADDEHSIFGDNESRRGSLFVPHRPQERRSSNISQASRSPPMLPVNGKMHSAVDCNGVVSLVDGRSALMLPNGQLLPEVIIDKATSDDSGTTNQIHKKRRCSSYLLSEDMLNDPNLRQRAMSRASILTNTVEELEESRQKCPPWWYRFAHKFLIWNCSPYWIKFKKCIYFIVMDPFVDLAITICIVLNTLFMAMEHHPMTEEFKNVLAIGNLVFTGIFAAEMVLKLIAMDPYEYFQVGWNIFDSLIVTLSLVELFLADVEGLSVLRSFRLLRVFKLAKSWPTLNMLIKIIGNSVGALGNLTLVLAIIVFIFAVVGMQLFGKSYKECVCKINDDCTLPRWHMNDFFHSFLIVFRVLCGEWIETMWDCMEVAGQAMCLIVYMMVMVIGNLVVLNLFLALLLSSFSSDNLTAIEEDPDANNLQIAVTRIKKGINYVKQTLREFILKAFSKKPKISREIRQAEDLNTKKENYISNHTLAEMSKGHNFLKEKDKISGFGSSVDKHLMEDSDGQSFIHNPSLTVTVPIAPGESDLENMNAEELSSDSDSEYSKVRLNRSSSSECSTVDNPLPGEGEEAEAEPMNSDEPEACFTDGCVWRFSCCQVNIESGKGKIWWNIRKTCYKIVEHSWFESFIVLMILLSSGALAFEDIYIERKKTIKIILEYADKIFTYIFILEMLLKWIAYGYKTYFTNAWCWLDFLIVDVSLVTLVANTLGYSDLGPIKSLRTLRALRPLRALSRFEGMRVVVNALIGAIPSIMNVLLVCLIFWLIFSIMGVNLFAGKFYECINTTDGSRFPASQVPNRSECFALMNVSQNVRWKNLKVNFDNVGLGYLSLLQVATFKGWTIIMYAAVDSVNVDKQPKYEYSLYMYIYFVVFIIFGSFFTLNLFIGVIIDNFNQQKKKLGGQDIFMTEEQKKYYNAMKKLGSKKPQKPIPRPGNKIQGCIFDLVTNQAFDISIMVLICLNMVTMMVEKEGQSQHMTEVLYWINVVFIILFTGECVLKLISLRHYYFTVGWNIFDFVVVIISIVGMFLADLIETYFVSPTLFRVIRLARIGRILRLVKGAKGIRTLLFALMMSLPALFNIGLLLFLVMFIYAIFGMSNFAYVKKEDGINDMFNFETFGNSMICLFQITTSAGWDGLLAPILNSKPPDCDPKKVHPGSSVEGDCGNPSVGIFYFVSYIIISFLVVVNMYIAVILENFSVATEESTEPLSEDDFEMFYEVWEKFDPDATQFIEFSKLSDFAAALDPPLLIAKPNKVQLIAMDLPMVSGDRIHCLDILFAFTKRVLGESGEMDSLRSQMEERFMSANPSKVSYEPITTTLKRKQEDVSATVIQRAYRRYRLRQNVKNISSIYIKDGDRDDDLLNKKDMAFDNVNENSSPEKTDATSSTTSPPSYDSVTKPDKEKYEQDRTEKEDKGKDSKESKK

IC50 [nM] | SMILES
2000 to 5000 | CN1CCn2c(Cl)ccc2C12CCN(C(=O)c1ccc(OCC3CC3)cc1)CC2 [Compound 147]
≤ 2000 | Cc1cc(C(=O)N2CCC3(CC2)c2ccc(C(=O)C(F)(F)F)n2CCN3C)ccc1OCCCO [Compound 148]
≤ 2000 | COc1cc(C(=O)N2CCC3(CC2)c2ccc(C(F)(F)F)n2CC(C)N3C)ccc1OC(C)C (centres unmarked) [Compound 149]
≤ 2000 | CC(C)C(O)c1ccc(C(=O)N2CCC3(CC2)c2ccc(C(F)(F)F)n2CCN3C)cc1 (centres unmarked) [Compound 150]
≤ 2000 | COc1cc(C(=O)N2CCC3(CC2)c2ccc(C(F)(F)F)n2CCN3C)ccc1C(C)(C)CO [Compound 151]
≤ 2000 | CC(C)Oc1ccc(C(=O)N2CCC3(CC2)c2ccc(C(F)(F)F)n2C[C@H](C)N3C)c(F)c1 [Compound 152]
> 5000 | Cc1cc(S(=O)(=O)C(C)C)ccc1C(=O)N1CCC2(CC1)c1ccc(C(=O)C(F)(F)F)n1CCN2C [Compound 153]
2000 to 5000 | CC(C)c1ccc(C(=O)N2CCC3(CC2)c2ccc(C(=O)C(F)(F)F)n2CCN3C)cc1S(C)(=O)=O [Compound 154]
> 5000 | CN1CCn2c(C(F)(F)F)ccc2C12CCN(C(=O)c1ccc(Oc3ccccc3)cc1)CC2 [Compound 155]
≤ 2000 | Cc1cc(C(=O)N2CCC3(CC2)c2ccc(C(F)(F)F)n2CCN3CCO)ccc1OC(C)C [Compound 156]
≤ 2000 | COc1cc(C(=O)N2CCC3(CC2)c2ccc(C(F)(F)F)n2CCN3C)ccc1OC(C)(C)C [Compound 158]
2000 to 5000 | Cc1cc(C(F)F)n2ncc(C(=O)N3CCC4(CC3)NCCn3c(C(F)(F)F)ccc34)c2n1 [Compound 159]
≤ 2000 | CC(C)Oc1ccc(C(=O)N2CCC3(CC2)c2ccc(C(=O)C(F)(F)F)n2CCN3C)cc1CO [Compound 160]
≤ 2000 | Cc1cc(C(=O)N2CCC3(CC2)c2ccc(C(=O)C4(C)CC4)n2CCN3C)ccc1O [Compound 161]
≤ 2000 | CC(C)Nc1ccnc2c(C(=O)N3CCC4(CC3)c3ccc(C(F)(F)F)n3CCN4C)cnn12 [Compound 162]
> 5000 | CC(=O)c1ccc2n1CCN(C)C21CCN(C(=O)c2ccc(-c3ccccc3)cc2)CC1 [Compound 163]
≤ 2000 | COc1ccc(C(=O)N2CCC3(CC2)c2ccc(C(=O)C(F)(F)F)n2C(C)CN3C)cc1C (centres unmarked) [Compound 164]
≤ 2000 | Cc1cc(C(=O)N2CCC3(CC2)c2ccc(C(F)(F)F)n2CCN3CC#N)ccc1OC(C)C [Compound 165]
> 5000 | CN1CCn2c(C(F)(F)F)ccc2C12CCN(C(=O)c1cccc(Cl)c1)CC2 [Compound 166]
≤ 2000 | CCN1CCn2c(C(F)(F)F)ccc2C12CCN(C(=O)c1ccc(OC(C)C)c(OC)c1)CC2 [Compound 167]
≤ 2000 | COc1cc(C(=O)N2CCC3(CC2)c2ccc(C(F)(F)F)n2CCN3C)ccc1OCCOC(F)(F)F [Compound 168]
≤ 2000 | Cc1cc(-c2ccc(C(=O)N3CCC4(CC3)c3ccc(C(=O)C(F)(F)F)n3CCN4C)cc2C)ccn1 [Compound 169]
> 5000 | COc1cc(C(=O)N2CCC3(CC2)c2ccc(C(F)(F)F)n2CCN3C(C)=O)ccc1OC(C)C [Compound 170]
≤ 2000 | COc1cc(C(=O)N2CCC3(CC2)NCC(C)n2c(C(=O)C(F)(F)F)ccc23)ccc1OCCOC(F)(F)F (centres unmarked) [Compound 171]
≤ 2000 | CN1CCn2c(C(=O)C(F)(F)F)ccc2C12CCN(C(=O)c1ccc(-c3ccccc3)cc1)CC2 [Compound 172]

IC50 [nM] | SMILES
≤ 2000 | COc1ccc(C(=O)N2CCC3(CC2)NCC(C)n2c(C(=O)C(F)(F)F)ccc23)cc1C(F)(F)F (centres unmarked) [Compound 173]
≤ 2000 | CC(=O)c1ccc2n1C(C)(C)CN(C)C21CCN(C(=O)c2ccc(OC(C)C)c(C)c2)CC1 [Compound 174]
≤ 2000 | CN1CCn2c(C(=O)C(F)(F)F)ccc2C12CCN(C(=O)c1ccc(OCC(F)(F)F)cc1)CC2 [Compound 175]
2000 to 5000 | CC(C)S(=O)(=O)c1ccc(C(=O)N2CCC3(CC2)c2ccc(C(=O)C(C)(C)C)n2CCN3C)cc1 [Compound 176]
> 5000 | Cc1cc(C(=O)N2CCC3(CC2)c2ccc(C(F)(F)F)n2CCN3C)ccc1F [Compound 177]
> 5000 | Cc1nc(C(=O)N2CCC3(CC2)c2cc(C(=O)C(F)(F)F)cn2C(C)(C)CN3C)ccc1OC(C)C [Compound 178]
2000 to 5000 | COc1cc(C(=O)N2CCC3(CC2)N[C@H](C)Cn2c(C(F)(F)F)ccc23)ccc1OC(C)C [Compound 179]
≤ 2000 | COc1ccc(C(=O)N2CCC3(CC2)c2ccc(C(=O)c4ccccc4)n2CCN3C)cc1C(F)(F)F [Compound 180]
≤ 2000 | CCCCOc1ccc(C(=O)N2CCC3(CC2)NCCn2c(C(F)(F)F)ccc23)cc1OC [Compound 181]
≤ 2000 | Cc1cc(C(=O)N2CCC3(CC2)c2ccc(C(=O)C(C)C)n2CCN3C)ccc1OC(C)C [Compound 182]
≤ 2000 | CC(C)C(=O)c1ccc2n1CCN(C)C21CCN(C(=O)c2ccc(C(C)(C)O)c(F)c2)CC1 [Compound 183]
2000 to 5000 | CN1CCn2c(C(F)(F)F)cc(F)c2C12CCN(C(=O)c1ccc(C3CC3)cc1)CC2 [Compound 184]
≤ 2000 | CN1CCn2c(C(=O)C(F)(F)F)ccc2C12CCN(C(=O)c1ccc(OC(F)(F)F)cc1)CC2 [Compound 185]
≤ 2000 | COCCN1CCn2c(C(F)(F)F)ccc2C12CCN(C(=O)c1ccc(OC(C)C)c(OC)c1)CC2 [Compound 186]
≤ 2000 | COCCOc1ccc(C(=O)N2CCC3(CC2)c2c(F)cc(C(F)(F)F)n2CCN3C)cc1OC [Compound 187]
≤ 2000 | COc1cc(C(=O)N2CCC3(CC2)c2c(F)cc(C(F)(F)F)n2CCN3C)ccc1OCC(C)C [Compound 188]
≤ 2000 | CCCCc1ccc(C(=O)N2CCC3(CC2)c2ccc(C(C)=O)n2CCN3C)cc1 [Compound 189]
≤ 2000 | CCCOc1ccc(C(=O)N2CCC3(CC2)c2ccc(C(F)(F)F)n2CCN3C)cc1OC [Compound 190]
≤ 2000 | Cc1cc(C(=O)N2CCC3(CC2)c2ccc(C(=O)C(F)(F)F)n2CCN3C)ccc1-c1cncnc1 [Compound 191]
> 5000 | CCNS(=O)(=O)c1ccc(C(=O)N2CCC3(CC2)c2ccc(C(C)=O)n2CCN3C)cc1 [Compound 192]
≤ 2000 | CN1CCn2c(C(F)(F)F)cc(F)c2C12CCN(C(=O)c1ccc(C(C)(C)O)cc1)CC2 [Compound 193]
≤ 2000 | CNS(=O)(=O)c1ccc(C(=O)N2CCC3(CC2)c2ccc(C(=O)C(F)(F)F)n2CCN3C)cc1C [Compound 194]
> 5000 | CN1CCn2c(Cl)ccc2C12CCN(C(=O)c1ccc(N3CCCCC3)cc1)CC2 [Compound 195]
> 5000 | CN1CCn2c(C(F)(F)F)ccc2C12CCN(C(=O)c1ccc(OC(C)(C)C)cn1)CC2 [Compound 196]
≤ 2000 | CC1(C)Cn2c(C(=O)C(F)(F)F)ccc2C2(CCN(C(=O)c3ccc(S(=O)(=O)C4CC4)cc3)CC2)N1 [Compound 197]

IC50 [nM] | SMILES
≤ 2000 | Cc1nc(C(=O)N2CCC3(CC2)NCC(C)n2c(C(=O)C(F)(F)F)ccc23)ccc1OC(C)C (centres unmarked) [Compound 198]
≤ 2000 | Cc1cc(C(=O)N2CCC3(CC2)c2ccc(C(=O)C(C)(C)C)n2CCN3C)ccc1OC(C)C [Compound 199]
≤ 2000 | Cc1nc(C(=O)N2CCC3(CC2)c2ccc(C(F)(F)F)n2CCN3C)ccc1OC(C)C [Compound 200]
≤ 2000 | Cc1cc(C(=O)N2CCC3(CC2)c2ccc(C(=O)C(F)(F)F)n2CCN3C)ccc1O [Compound 201]
2000 to 5000 | CC(C)Oc1ccc(C(=O)N2CC[C@]3(c4ccc(C(F)(F)F)n4CCN3C)[C@H](F)C2)cc1CO [Compound 202]
≤ 2000 | CCCCOc1ccc(C(=O)N2CCC3(CC2)c2ccc(C(F)(F)F)n2CCN3C)cc1OC [Compound 203]
> 5000 | COc1ccc(C(=O)N2CCC3(CC2)NC(C)(C)Cn2c(C(C)=O)ccc23)cc1Cl [Compound 204]
> 5000 | COc1ccc(C(=O)N2CCC3(CC2)c2ccc(C(C)=O)n2CCN3C)cc1-c1ccccc1 [Compound 205]
≤ 2000 | Cc1nc(C(=O)N2CCC3(CC2)c2c(F)cc(C(F)(F)F)n2CCN3C)ccc1OC(C)C [Compound 206]
≤ 2000 | Cc1cc(C(=O)N2CCC3(CC2)c2ccc(C(=O)C(F)(F)F)n2C[C@H](C)N3C)ccc1O [Compound 207]
≤ 2000 | CC1(C)Cn2c(C(=O)C(F)(F)F)ccc2C2(CCN(C(=O)c3ccc(S(=O)(=O)C(C)(C)C)cc3)CC2)N1 [Compound 208]
≤ 2000 | COc1cc(C(=O)N2CCC3(CC2)c2ccc(Cl)n2CCN3C)ccc1C(C)(C)C [Compound 209]
2000 to 5000 | CCOC(=O)N1CCn2c(C#N)ccc2C12CCN(C(=O)c1ccc(OC(C)C)c(C)c1)CC2 [Compound 210]
≤ 2000 | Cc1cc(C(=O)N2CCC3(CC2)c2ccc(C(F)(F)C(F)(F)F)n2CCN3C)ccc1OC(C)C [Compound 211]
≤ 2000 | CCCCOc1cc(C(=O)N2CCC3(CC2)c2ccc(C(F)(F)F)n2CCN3C)ccc1OC [Compound 212]
≤ 2000 | COc1cc(C(=O)N2CCC3(CC2)c2ccc(C(F)(F)F)n2CCN3C)ccc1C(C)(C)O [Compound 213]
≤ 2000 | CN1CCn2c(C(=O)C(F)(F)F)ccc2C12CCN(C(=O)c1ccc(COc3ccccc3)cc1)CC2 [Compound 214]
≤ 2000 | Cc1cc(C(=O)N2CCC3(CC2)c2c(F)cc(C(F)(F)F)n2CCN3C)ccc1S(=O)(=O)C(C)C [Compound 215]
≤ 2000 | Cc1cc(C(=O)N2CCC3(CC2)c2ccc(C(=O)C(F)(F)F)n2CCN3C)ccc1-c1ccc(C#N)nc1 [Compound 216]
≤ 2000 | Cc1cc(C(=O)N2CCC3(CC2)c2c(F)cc(C(F)(F)F)n2CCN3C)ccc1OCC(C)(C)O [Compound 217]
> 5000 | CC1(C)Cn2c(C(=O)C(F)(F)F)ccc2C2(CCN(C(=O)c3ccc(-c4ccccc4)c(O)c3)CC2)N1 [Compound 218]
≤ 2000 | CC(=O)c1ccc2n1CCN(C)C21CCN(C(=O)c2ccc(OCCC(C)C)cc2)CC1 [Compound 219]
2000 to 5000 | CC(C)Oc1ccc(C(=O)N2CCC3(CC2)c2ccc(Cl)n2CCN3C)cc1C#N [Compound 220]
> 5000 | CC(C)c1ccc(C(=O)N2CCC3(CC2)c2ccc(Cl)n2CCN3C)cc1 [Compound 221]
